Results on 3 compounds are retold here after PubChem BioAssay AID2060901 (Molecular Pharmacology Branch, DTP, NCI, 2025).

The subject of this assay is 422866-222-R5-J1-PDC complex spheroids viability. Nature of the assay: Anticancer human tumor 422866-222-R5-J1-PDC patient-derived pancreatic adenocarcinoma cell line growth inhibition [RAS]. Particulars: for viability, T/C: stronger effect = lower value. Summed up:
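Agents were tested in combination matrices in half-log decrements from a top concentration at or near clinical Cmax (10 microM if undetermined). Targets were multi-cell spheroids of tumour lines plus HUVEC and MSC stromal cells.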

Where “and” joins values, the source holds several entries; their conditions need not be identical. Equal values may be shown once.
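Note: spheroids exposed to compounds for 7 days.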
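Throughout, for viability, T/C: 100% = DMSO vehicle control viability.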

As for `NC1c2ccccc2OC12CCN(c1cnc3c(N4CCCc5ncccc54)n[nH]c3n1)CC2` (stereo not given) + CCn1c(-c2cccnc2C(C)OC)c2c3cc(ccc31)N1CCOC(CC(NC(=O)C(C(C)C)N(C)C(=O)C3(F)CCN(C(=O)C#CC(C)(C)N(C)C)CC3)C(=O)N3CCCC(N3)C(=O)OCC(C)(C)C2)C1, the IC50 by setting is: (curve of first compound, second compound 0.000949 µM) below 31.6 nM; (curve of first compound, second compound 0.003 µM) below 31.6 nM; (curve of first compound, second compound 0.00949 µM) below 31.6 nM; (curve of first compound, second compound 0.03 µM) below 31.6 nM; (curve of first compound, second compound 0.0949 µM) below 31.6 nM; (curve of first compound, second compound 0.3 µM) below 31.6 nM. Moreover, the viability, T/C (second compound 0.000949 µM, first compound 0.0316 µM) is 20.1%; the viability, T/C (second compound 0.000949 µM, first compound 0.1 µM) is 18.2%; the viability, T/C (second compound 0.000949 µM, first compound 0.316 µM) is 14.9%; the viability, T/C (second compound 0.000949 µM, first compound 1 µM) was 16.1%; the viability, T/C (second compound 0.000949 µM, first compound 3.16 µM) is 18.1%; the viability, T/C (second compound 0.000949 µM, first compound 10 µM) is 15.7%. Also, the viability, T/C by setting is: (second compound 0.003 µM, first compound 0.0316 µM) 16%; (second compound 0.003 µM, first compound 0.1 µM) 12.6%; (second compound 0.003 µM, first compound 0.316 µM) 14.4%; (second compound 0.003 µM, first compound 1 µM) 14.4%; (second compound 0.003 µM, first compound 3.16 µM) 13.5%; (second compound 0.003 µM, first compound 10 µM) 15.1%. Moreover, the viability, T/C (second compound 0.00949 µM, first compound 0.0316 µM) was 17.7%; the viability, T/C (second compound 0.00949 µM, first compound 0.1 µM) was 14.1%; the viability, T/C (second compound 0.00949 µM, first compound 0.316 µM) was 13.7%; the viability, T/C (second compound 0.00949 µM, first compound 1 µM) is 14.3%; the viability, T/C (second compound 0.00949 µM, first compound 3.16 µM) was 13.8%; the viability, T/C (second compound 0.00949 µM, first compound 10 µM) was 15.8%. Besides, the viability, T/C was 15.8% (second compound 0.03 µM, first compound 0.0316 µM); 12.8% (second compound 0.03 µM, first compound 0.1 µM); 14.3% (second compound 0.03 µM, first compound 0.316 µM); 12.9% (second compound 0.03 µM, first compound 1 µM); 12.9% (second compound 0.03 µM, first compound 3.16 µM); 13.6% (second compound 0.03 µM, first compound 10 µM). The viability, T/C by setting is: (second compound 0.0949 µM, first compound 0.0316 µM) 12.8%; (second compound 0.0949 µM, first compound 0.1 µM) 13.3%; (second compound 0.0949 µM, first compound 0.316 µM) 13.6%; (second compound 0.0949 µM, first compound 1 µM) 13%; (second compound 0.0949 µM, first compound 3.16 µM) 12.6%; (second compound 0.0949 µM, first compound 10 µM) 13.4%. In addition, the viability, T/C (second compound 0.3 µM, first compound 0.0316 µM) is 11.3%; the viability, T/C (second compound 0.3 µM, first compound 0.1 µM) is 13.4%; the viability, T/C (second compound 0.3 µM, first compound 0.316 µM) was 13.9%; the viability, T/C (second compound 0.3 µM, first compound 1 µM) is 11.3%; the viability, T/C (second compound 0.3 µM, first compound 3.16 µM) was 14.2%; the viability, T/C (second compound 0.3 µM, first compound 10 µM) is 17.4%.

As to `CC(Nc1ccc2c(c1)OCCn1cc(N3C(=O)OCC3C(F)F)nc1-2)C(N)=O` (stereo not given), the viability, T/C runs as follows: (compound 0.0316 µM) 75.3% [middle of 4 runs]; (compound 0.1 µM) 53.4% [middle of 4 runs]; (compound 0.316 µM) 42.6% [middle of 4 runs]; (compound 1 µM) 39.3% [middle of 4 runs]; (compound 10 µM) 26.1% and 23.8% and 27% (2×).

As to `C=CC(=O)N1CCN(c2nc(OCC3CCCN3C)nc3c(F)c(-c4nc(N)cc(C)c4C(F)(F)F)c(Cl)cc23)C(C)C1` (stereo not given), the viability, T/C was 28% [middle of 12 runs] (compound 0.00316 µM); 27.2% [middle of 12 runs] (compound 0.01 µM); 24.1% [middle of 12 runs] (compound 0.0316 µM); 24.8% [middle of 12 runs] (compound 0.1 µM); 26.7% [middle of 12 runs] (compound 0.316 µM); 26.5% [middle of 12 runs] (compound 1 µM). Further, the concentration for half-maximal inhibition (IC50) by setting is: (compound alone, run of 06/10/2024) below 3.16 nM; (curve of compound) below 3.16 nM.

The term IC50 denotes the midpoint of a concentration-inhibition curve. The term viability, T/C denotes the result in the treated group divided by that in the control group, in per cent.
